The values below come from patent publication US20230003718A1, “METHODS FOR ASSESSING RATES OF DNA REPAIR” (The Johns Hopkins University, priority 2021, published 2023).

“Also recorded” adds a separate entry of the source. Read-outs that look alike come from different tables or passages of the source.

Format in all cases: cell-based
The test system of experiment [1] is non-homologous end joining (NHEJ) repair of Cas9 DSB in HEK293FT cells. Description: RepairSwitch assay, rate of NHEJ (loss of EGFP, flow cytometry). Conditions: dose range 1 nm to 10 uM. On the procedure:
(§1) All cell lines were plated in 12-well plates at 2.5E5 cells/well in their respective growth mediums. The growth medium was then replaced after 24-48 hours and the cells were transfected with lug of CRISPR/Cas9 gRNA construct, lug of HR repair template, or both gRNA and HR repair template (2 ug total) in combination using FuGENE HD (Promega) at a FuGENE to DNA ratio of 3:1. The DNA was mixed with Opti-MEM (50 ul Opti-MEM/ug DNA) and FuGENE was added for an incubation period of 15 minutes before being added dropwise to the well. If drug is being utilized, cells are dosed immediately prior to transfection. Fresh growth medium was replaced every 48-72 hours. Cells were kept in culture for 1 week before assessment of fluorescence via flow cytometry.
(§2) All drugs were dissolved in DMSO as per Selleck instructions. For cell-based work drugs were diluted to a final concentration of 0.001% DMSO. All drugs were given in a dose range of 1 nm to 10 uM, unless toxicity was shown in Incucyte proliferation assays (S1, S2).
Medium was removed from 12-well plates and cells were detached from plate using TrypLE Express. FBS containing medium was used to neutralize TrypLE Express and cells were collected and spun down at 1000 RPM for 5 min. […] For each sample, 10,000-30,000 high DsRed expressing cells were counted depending on sample concentration, and assessed for both EGFP and BFP expression. […]
(§3) The RepairSwitch assay was developed to measure the balance of HR- and NHEJ-mediated double-strand break (DSB) repair. […] In this system, the resulting fluorescence, post CRISPR/Cas9 cutting at the target locus, is dependent on the method of repair. […] Either, the EGFP fluorescence will be extinguished due to the error prone repair, or it is possible for the EGFP protein to be repaired correctly or with a silent mutation via NHEJ, thereby producing a viable fluorescent signal. […] A schematic of the RepairSwitch assay readout (FIG. 1B) provides a concise overview of the possible fluorescent outcomes and their respective implications.
A general note: Flow cytometry measures light scatter and fluorescence of single cells or particles in a stream.

Experiment [2] relates to homologous recombination (HR) repair of Cas9 DSB in HCT116 cells. Briefly: cells. Conditions: for Effect on rate of HR: HCT116 cells. How it is done:
(§4) All cell lines were plated in 12-well plates at 2.5E5 cells/well in their respective growth mediums. […]. The DNA was mixed with Opti-MEM (50 ul Opti-MEM/ug DNA) and FuGENE was added for an incubation period of 15 minutes before being added dropwise to the well. If drug is being utilized, cells are dosed immediately prior to transfection. Fresh growth medium was replaced every 48-72 hours. Cells were kept in culture for 1 week before assessment of fluorescence via flow cytometry.
(§5) All compounds used can be found listed in Table 1, and all were purchased from Selleck. All drugs were dissolved in DMSO as per Selleck instructions. […].
(§6) Medium was removed from 12-well plates and cells were detached from plate using TrypLE Express. FBS containing medium was used to neutralize TrypLE Express and cells were collected and spun down at 1000 RPM for 5 min. Cell pellets were then washed with PBS twice before resuspension in 500 ul PBS and put on ice. Prior to flow of each sample, cells were resuspended and put through a cell-strainer cap on the flow tube. Cells were gated to ensure single cell population as well as high DsRed expression. For each sample, 10,000-30,000 high DsRed expressing cells were counted depending on sample concentration, and assessed for both EGFP and BFP expression. FlowJo was utilized to analyze all flow cytometry results and to produce statistics on each population.
Graphpad Prism was utilized to visualize statistical results from FlowJo. […]
as §3

Experiment [3] has as its system homologous recombination (HR) repair of Cas9 DSB in HEK293FT cells. Description: RepairSwitch assay, rate of HR (EGFP to BFP switch, flow cytometry). To be noted: for IC50: RepairSwitch, 1 week after transfection, read-out: IC50 for inhibition of HR rate; for Effect on rate of HR: dose range 1 nm to 10 uM. How it is done: as §1, §2, §6
Graphpad Prism was utilized to visualize statistical results from FlowJo. Additionally, it was utilized to provide statistical analyses of p value using unpaired t-tests.
The RepairSwitch assay was developed to measure the balance of HR- and NHEJ-mediated double-strand break (DSB) repair. To accomplish this, it was necessary to design assay vectors that could be lenti-virally transduced into cells and would thereby be incorporated into the genome. […] Additionally, it allowed DsRed to serve as a transduction control to ensure vector integration at an MOI of 0.3, while EGFP served as a target for CRISPR/Cas9 induced DSB. […] Additionally, in conjunction with the administration of the CRISPR/Cas9 EGFP gRNA, exogenous single stranded DNA oligos were administered in excess and act as the repair template. In this system, the resulting fluorescence, post CRISPR/Cas9 cutting at the target locus, is dependent on the method of repair. Upon utilization of the repair template in repair via homologous recombination (HR) the resulting locus will be converted from EGFP to BFP. This is possible due to the sequence similarity of these fluorescent proteins, which differ in only two bases, resulting in the substitution of two adjacent amino acids. […] Either, the EGFP fluorescence will be extinguished due to the error prone repair, or it is possible for the EGFP protein to be repaired correctly or with a silent mutation via NHEJ, thereby producing a viable fluorescent signal. […] A schematic of the RepairSwitch assay readout (FIG. 1B) provides a concise overview of the possible fluorescent outcomes and their respective implications.

Experiment [4] has as its system non-homologous end joining (NHEJ) repair of Cas9 DSB in HCT116 cells. Briefly: RepairSwitch assay, rate of NHEJ (loss of EGFP, flow cytometry). How it is done:
as §4, §5
Medium was removed from 12-well plates and cells were detached from plate using TrypLE Express. […] For each sample, 10,000-30,000 high DsRed expressing cells were counted depending on sample concentration, and assessed for both EGFP and BFP expression. […]
The RepairSwitch assay was developed to measure the balance of HR- and NHEJ-mediated double-strand break (DSB) repair. […] In this system, the resulting fluorescence, post CRISPR/Cas9 cutting at the target locus, is dependent on the method of repair. […] Either, the EGFP fluorescence will be extinguished due to the error prone repair, or it is possible for the EGFP protein to be repaired correctly or with a silent mutation via NHEJ, thereby producing a viable fluorescent signal. […]

`Nc1ncn([C@H]2C[C@H](O)[C@@H](CO)O2)c(=O)n1` [Decitabine]: the “Effect on rate of NHEJ” value is recorded as “compensatory increase in the rates of NHEJ” in experiment [1], “increased rates of NHEJ” in experiment [1] (listed as decitabine), “also consistent in HCT116 cells” in experiment [4] and “increased rates of NHEJ” in experiment [4] (listed as decitabine). For the same molecule, the “Effect on rate of HR” value in experiment [2] was “also consistent in HCT116 cells”; in experiment [2] (listed as decitabine), “reduced HR”; in experiment [3], “dose responsive decrease in the rates of HR”; in experiment [3] (listed as decitabine), “reduced HR”. In addition, the half-maximal inhibitory concentration (IC50) (in general, the concentration that gives 50% inhibition) was found to be 1400 nM in experiment [2] (Homo sapiens, HCT-116, read-out: IC50 for inhibition of HR rate) and 187 nM in experiment [3] (168 h).
With Olaparib, the “Effect on rate of NHEJ” value in experiment [1] was “lower potency in modulating HR and NHEJ; also recorded: subtle increase in the rates of NHEJ”. In addition, in experiment [3], the IC50 was 739 nM; the “Effect on rate of HR” value is “lower potency in modulating HR and NHEJ; also recorded: subtle reduction in rates of HR”.
